{
  "source": "paper doi:10.1101/2020.10.13.337410v3",
  "about": "“Agonist efficiency from concentration-response curves: structural implications and applications” (biorxiv, 2021)",
  "target": "T1, adult-type mouse AChR (α1-GFP, β, δ, ε), whole-cell (Mus musculus, UniProt P02716+P04756+P20782)",
  "T1 construct": "gene Chrna1; alpha1 with GFP encoded between M3 and M4; transient expression in HEK293, GFP-sorted cells; pentamer; no background mutations; with Acetylcholine receptor subunit beta",
  "T1 sequence (P20782 21-493)": "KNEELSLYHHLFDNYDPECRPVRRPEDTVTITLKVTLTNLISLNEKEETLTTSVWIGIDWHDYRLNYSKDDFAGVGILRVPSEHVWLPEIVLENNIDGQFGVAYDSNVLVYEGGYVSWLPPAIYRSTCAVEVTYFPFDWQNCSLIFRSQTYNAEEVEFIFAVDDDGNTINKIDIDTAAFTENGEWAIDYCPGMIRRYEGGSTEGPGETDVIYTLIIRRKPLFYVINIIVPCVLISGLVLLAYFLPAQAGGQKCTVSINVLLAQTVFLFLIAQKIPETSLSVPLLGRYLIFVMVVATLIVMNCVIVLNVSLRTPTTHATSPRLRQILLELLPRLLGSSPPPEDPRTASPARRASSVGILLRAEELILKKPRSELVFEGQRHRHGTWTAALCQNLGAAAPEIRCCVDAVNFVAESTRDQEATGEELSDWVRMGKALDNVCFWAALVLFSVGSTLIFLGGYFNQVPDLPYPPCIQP",
  "T1 sequence (P02716 25-520)": "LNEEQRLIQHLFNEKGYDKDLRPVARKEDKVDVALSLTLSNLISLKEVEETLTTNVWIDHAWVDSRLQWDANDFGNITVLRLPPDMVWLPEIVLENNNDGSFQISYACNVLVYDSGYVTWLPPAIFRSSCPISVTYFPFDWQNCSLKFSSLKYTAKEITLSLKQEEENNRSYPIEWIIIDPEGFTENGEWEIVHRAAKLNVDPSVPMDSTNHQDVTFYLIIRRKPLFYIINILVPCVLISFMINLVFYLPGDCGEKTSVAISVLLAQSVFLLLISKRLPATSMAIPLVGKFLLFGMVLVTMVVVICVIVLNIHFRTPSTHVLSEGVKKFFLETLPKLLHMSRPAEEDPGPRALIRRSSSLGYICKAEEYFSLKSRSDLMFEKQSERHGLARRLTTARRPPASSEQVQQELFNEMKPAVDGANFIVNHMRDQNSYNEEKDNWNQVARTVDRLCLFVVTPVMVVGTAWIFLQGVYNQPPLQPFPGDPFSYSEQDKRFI",
  "T1 sequence (P09690 24-501, further chain)": "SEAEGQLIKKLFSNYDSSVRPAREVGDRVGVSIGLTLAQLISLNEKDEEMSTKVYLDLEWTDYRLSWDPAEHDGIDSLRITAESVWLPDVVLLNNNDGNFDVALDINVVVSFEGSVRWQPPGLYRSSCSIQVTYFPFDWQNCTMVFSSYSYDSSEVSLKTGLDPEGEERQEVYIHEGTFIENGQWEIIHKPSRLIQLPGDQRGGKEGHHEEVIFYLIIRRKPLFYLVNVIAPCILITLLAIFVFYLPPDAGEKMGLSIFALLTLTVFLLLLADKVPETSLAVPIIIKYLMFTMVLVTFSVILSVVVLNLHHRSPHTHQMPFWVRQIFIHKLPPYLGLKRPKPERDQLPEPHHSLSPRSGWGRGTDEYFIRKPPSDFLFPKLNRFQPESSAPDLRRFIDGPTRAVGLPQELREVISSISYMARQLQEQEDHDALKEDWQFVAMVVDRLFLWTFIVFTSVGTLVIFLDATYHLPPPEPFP",
  "T1 sequence (P04756 21-457)": "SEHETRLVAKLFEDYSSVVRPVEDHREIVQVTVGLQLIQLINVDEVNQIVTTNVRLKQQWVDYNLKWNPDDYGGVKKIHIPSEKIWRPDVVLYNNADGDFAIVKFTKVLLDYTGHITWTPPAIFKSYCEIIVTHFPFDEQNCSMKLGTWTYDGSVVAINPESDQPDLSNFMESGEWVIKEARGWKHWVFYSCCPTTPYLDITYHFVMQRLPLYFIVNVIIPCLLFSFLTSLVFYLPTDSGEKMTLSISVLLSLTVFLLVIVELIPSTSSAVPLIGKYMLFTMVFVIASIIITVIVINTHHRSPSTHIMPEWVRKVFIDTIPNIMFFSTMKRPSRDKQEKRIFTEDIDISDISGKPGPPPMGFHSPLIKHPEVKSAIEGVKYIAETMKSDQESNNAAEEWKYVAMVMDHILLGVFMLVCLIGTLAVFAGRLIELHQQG",
  "experiment": "automated whole-cell patch clamp (IonFlux […]), concentration-response",
  "assay_type": "cell-based",
  "data": [
    {"compound": "C[N+](C)(C)CCOC(N)=O", "note": "[CCh]", "values": [
      {"measurement": "EC50", "value": "72.2 ± 11", "unit": "µM"}
    ]},
    {"compound": "C[N+](C)(C)C", "note": "[TMA]", "values": [
      {"measurement": "EC50", "value": "843 ± 110", "unit": "µM"}
    ]}
  ]
}
